Experimental data taken from patent publication US5561042A, “Diamine platinum naphthalimide complexes as antitumor agents” (Cancer Therapy and Research Center, priority 1995, dated 1996).
pIC50: −log10 of the molar value. Converted amounts (≈) assume the structure as drawn.

Assays:
[1] = human, in vivo; cited from earlier work
[2] = tested on: MX-1 human breast carcinoma; details: in vivo; cited from earlier work
B16 murine melanoma = assay: B16 melanoma in vivo, survival of B6D2F1 mice; details: q.d. × 5, i.p.; for T/C: mean survival treated/control
Experimental: B6D2F1 mice received i.p. inocula of B16 murine melanoma brei prepared from B16 tumors growing subcutaneously in mice (day 0). On day 1, rumored mice were treated with drugs or vehicle control; the route of drug administration and schedule were selected as appropriate for the study in question. If dosing information for agents was not available, the maximum tolerated dose (MTD) was determined in initial dose finding experiments in non-tumored mice. In a typical experiment, drugs were given at their MTD and 1/2 MTD doses i.p. on a daily×5 schedule.
The mean survival times of all groups were calculated, and results were expressed as mean survival of treated mice/mean survival of control mice (T/C)×100%. A T/C value of 150 means that the mice in the treated group lived 50% longer than those of the control group; this is sometimes referred to as the increase in life space, or ILS value.
Mice that survived for 60 days were considered long term survivors, or cures, in the B16 model. The universally accepted cut-off for activity in this model, which has been used for years by the National Cancer Institute, is T/C=125.
Statistics were performed on the data using primarily the log rank p-value test.

[3] = in vivo; cited from earlier work
[4] = tested on: DLD-2 human colon adenocarcinoma; details: in vivo; cited from earlier work
[5] = tested on: solid tumor xenografts, human and murine leukemia, doxorubicin resistant cell lines, colon carcinoma cells; details: cited from earlier work
[6] = cited from earlier work
[7] = tested on: Murine B16 melanoma cell line; assay: In vitro growth inhibition (MTT), B16 melanoma; format: cell-based; details: for pIC50: Mus musculus, B16, 72 h, MTT, 3 days
Excerpt: (§1) P388 murine leukemic cell line was obtained from the DCT Tumor Repository (National Cancer Institute, Frederick Cancer Research and Development, Frederick Md. 21702). HT29 Human Colon Carcinoma cell line was obtained from the American Type Culture Collection (12301 Parklawn Drive, Rockville, Md. 20852). B16 Melanoma cell line was obtained from DuPont Merck Pharmaceutical Company (Glenolden, Pa. 19036). MCF-7 Human Breast Carcinoma cell line was a gift from Dr. K. Osborne (Department of Medicine, The University of Texas Health Science Center at San Antonio, San Antonio, Tex. 78284). All cell lines were incubated at 37° C. in a humidified atmosphere of 5% CO2 -95% air. Murine B16 melanoma cell line was grown in RPMI 1640 medium supplemented with 10% heat-inactivated fetal bovine serum, 2 mM L-glutamine, 50 units/ml penicillin, 50 μg/ml streptomycin, 25 μg/ml gentamycin, 0.75% sodium bicarbonate, 10 mM HEPES buffer (pH 7.4), and 0.06 mg/ml AntiPPLO. Murine P388 leukemic and the human HT-29 colon adenocarcinoma cell lines were maintained in RPMI 1640 medium supplemented with 10% heat-inactivated fetal bovine serum. MCF-7M human breast adenocarcinoma was maintained in IMEM medium supplemented with 5% non heat-inactivated fetal bovine serum and 1 nM insulin.
(§2) Exponentially growing cells (1-2×10^3 cells, unless specified otherwise) in 0.1 ml medium were seeded on day 0 in a 96-well microtiter plate. On day 1, 0.1 ml aliquots of medium containing graded concentrations of test compounds were added in duplicate to the cell plates. After incubation at 37° C. in a humidified incubator for 3 days (P388, B16) or 6 days (HT-29, MCF-7M), the plates were centrifuged briefly and 100 μl of the growth medium was removed. Cell cultures were incubated with 50 μl of 3-(4,5-dimethylthiazol-2-yl)-2,5-diphenyl-tetrazolium bromide [MTT, 1 mg/ml in Dulbecco's phosphate buffered saline (PBS)] for 4 hr at 37° C. The resulting purple formazan precipitate was solubilized with 200 μl of 0.04N HCl in isopropyl alcohol. Absorbance was monitored in a BioRad Model 3550 Microplate Reader at a test wavelength of 570 nm and a reference wavelength of 630 nm. The absorbance was transferred to a PC 486 computer. The IC50 values were determined by a computer program (EZ-ED50) that fit all of the data to the following four-parameterlogistic equation:
(§3) Y=((Am -Ao)/(1+(X/IC50)^n))+Ao
(§4) where Am is the absorbance of control cells, Ao is the absorbance of cells in the presence of highest agent concentration, Y is the observed absorbance, X is the agent concentration, IC50 is the concentration of agent that inhibits the cell growth by 50% of control cells (based on the absorbance) and n is the slope of the curve.

[8] = biological target: poly (dA.dT) - poly (dA.dT); assay: Ethidium bromide displacement, poly(dA.dT)-poly(dA.dT); format: binding; details: 1 μM DNA, 1.26 μM ethidium bromide, pH 7.0, read-out: FI50, poly (dA.dT) - poly (dA.dT)
Experimental: (§5) A 10× Binding solution was prepared by combining 0.93 ml of an aqueous NaCl solution (5M), 2.0 ml of an aqueous Tris HCl (500 mM) solution, 0.1 ml of an EDTA solution (500 mM) and 46.97 ml of water. The resultant solution was 93 mM in NaCl, 20 mM in Tris HCl, and 1 mM in EDTA. Stock DNA solution were prepared as follows: Poly (dG·dC)-(dG·dC) (ε254=8.4/mM; 27-7910-02), poly(dA·dT)-(dA·dT) (ε262=6.6/mM; 27-7870-02), and lambda DNA (ε260-7.0/mM; 27-4111-01) were purchased from Pharmacia. Solutions were prepared by resuspending either poly (dG·dC)-(dG·dC) or poly(dA·dT)-(dA·dT)in 1 ml of 10× DNA Binding Solution. Lambda DNA is already in solution as purchased.
(§6) Poly (dG·dC)-(dG·dC), poly(dA·dt)-(dA·dt) and lambda DNA concentrations were determined as follows: 980 μl of 10× DNA Binding Solution was pipetted into a 1 ml cuvette. A blank was run on the UV spectrophotometer. 20 μl of the DNA stock of unknown concentration was then added into the cuvette. The sample was then scanned between 210 nm to 500 nm and the absorbance recorded at 254 nm for poly(dG·dC)-(dG·dC), at 262 nm for poly(dA·dT)-(dA·dT) and at 260 nm for lambda DNA. The solution was transferred to a clean tube. This procedure was followed for three different solutions with the absorbance taken as the average of the three. The concentration of poly(dG·dC)-(dG·dC) stock was calculated to be A254 /8.4×1000 (in μM). The concentration of poly(dA·dT)-(dA·dT) stock was calculated to be A262 /6.6×1000 (in μM). The concentration of lambda DNA stock was calculated to be A260 /7.0×1000 (in μM).
(§7) The binding of the bis-naphthalimides to DNA and to synthetic polynucleotide duplexes was determined by an ethidium bromide displacement assay that measures the reduction of fluorescence when ethidium bromide is displaced from DNA (Baguley, 1981). The fluorescence intensity of a 3 ml solution containing 9.3 mM NaCl, 2 mM Tris-HCl (pH 7.0), 100 μM EDTA, 1 μM DNA (in nucleotides) and 1.26 μM ethidium bromide in a quartz cuvette was measured at the excitation (546 nm) and emission (600 nm) wavelengths on a Shimadzu RF5000U spectrofluorometer. Graded concentrations of agent were then added and the fluorescence intensity was measured. The concentration of compound required to reduce the fluorescence intensity by 50% of that of control (FI50) was determined. Therefore, the lower the FI50 the stronger the binding affinity a particular compound has for DNA.
(§8) The ability of bis-naphthalimides of the present invention and the known anti-cancer agents compound 22 and DMP840, (R,R)-2,2'[1,2-ethanediylbis[imino(1-methyl-2,1-ethanediyl)]]-bis[5-nitro- 1H benz[de]isoquinoline-1,3-(2H)dione]dimethanesulfonate, to bind to DNA and to synthetic oligonucleotide duplexes was measured using an ethidium bromide displacement assay. Ethidium bromide, a known DNA intercalator, has no fluorescence in the absence of DNA; however, fluorescence intensity increases when ethidium bromide binds to DNA. The ethidium bromide displacement assay measures the decrease in fluorescence intensity caused by DNA-bound ethidium bromide with DNA interacting agents.

[9] = tested on: poly (dG.dC) - poly (dG.dC); assay: Ethidium bromide displacement, poly(dG.dC)-poly(dG.dC); format: binding; details: for Ratio (AT/GC): FI50 poly(dA.dT)-poly(dA.dT) / FI50 poly(dG.dC)-poly(dG.dC); for pIC50: ethidium bromide displacement, 1 μM DNA, 1.26 μM ethidium bromide, pH 7.0, read-out: FI50, poly (dG.dC) - poly (dG.dC)
Experimental: as §5, §6, §7, §8

[10] = tested on: MCF-7 Human Breast Carcinoma cell line; assay: In vitro growth inhibition (MTT), MCF-7 breast carcinoma; format: cell-based; details: Homo sapiens, MCF7, 144 h, 6 days
Excerpt: as §1, §2, §3, §4

[11] = tested on: P388 murine leukemic cell line; assay: In vitro growth inhibition (MTT), P388 leukemia; format: cell-based; details: Mus musculus, P388, 72 h, 3 days
Excerpt: as §1, §2, §3, §4

Lambda DNA = assay: Ethidium bromide displacement, lambda DNA; format: binding; details: 1 μM DNA, 1.26 μM ethidium bromide, pH 7.0, read-out: FI50, Lambda DNA
Experimental: as §5, §6, §7, §8

LX-1 lung carcinoma = details: in vivo; cited from earlier work
[12] = tested on: SV40 DNA (Form I, negatively supercoiled); details: comparison with compound 21; no own test described; cited from earlier work
[13] = human, in vivo; cited from earlier work; remark: listed apart in the source
DNA = assay: Ethidium bromide displacement, DNA binding in general
Experimental: as §7
as §8, with “The ethidium bromide displacement assay measures the decrease in fluorescence intensity caused by DNA-bound ethidium bromide with DNA interacting agents.” left out

B16 melanoma = details: cited from earlier work
topoisomerase II = details: cited from earlier work

COc1cccc2c1C(=O)c1c(O)c3c(c(O)c1C2=O)C[C@@](O)(C(=O)CO)C[C@@H]3O[C@H]1C[C@H](N)[C@H](O)[C@H](C)O1 [Doxorubicin]
cardiomyopathy (in words) [1]: unusual cardiomyopathy

C[C@H](CNCCNC[C@@H](C)N1C(=O)c2cccc3cc([N+](=O)[O-])cc(c23)C1=O)N1C(=O)c2cccc3cc([N+](=O)[O-])cc(c23)C1=O [DMP840, (R,R)-2,2'[1,2-ethanediylbis[imino (1-methyl-2,1-ethanediyl)]]-bis[5-nitro-1H-benz[de]isoquinoline-1,3-(2H)-dione]dimethanesulfonate]
anti-tumor activity, MX-1 (in words) [2]: anti-tumor efficacy in vivo
60-Day Survivors (B16 murine melanoma; 5 mg/kg): 0
Wt. Ch. (%) (Day 7) (B16 murine melanoma; 5 mg/kg): +4.6%
T/C (B16 murine melanoma; 5 mg/kg): 156%
60-Day Survivors (B16 murine melanoma; 10 mg/kg): 0
Wt. Ch. (%) (Day 7) (B16 murine melanoma; 10 mg/kg): -0.33%
T/C (B16 murine melanoma; 10 mg/kg): 179%
irreversible toxicities (in words) [3]: no irreversible toxicities
anti-tumor activity, DLD-2 (in words) [4]: anti-tumor efficacy in vivo
anti-tumor efficacy in vivo (in words) [5]: anti-tumor efficacy in vivo
water solubility [6]: 3.4 g/L (≈ 5.44 mM)
pIC50 [7]: 7.57
pIC50 [8]: 5.48
Ratio (AT/GC) [9]: 35.2
pIC50 [9]: 7.04
pIC50 [10]: 8.15
pIC50 [11]: 8.22
pIC50 (Lambda DNA): 7.14
anti-tumor efficacy, LX-1 (in words) (LX-1 lung carcinoma): anti-tumor efficacy in vivo

N.N.[Cl][Pt][Cl] [Cisplatin]
effect on DNA conformation (in words) [12]: does not show such an effect and causes unwinding only after prolonged incubation

COc1cc(NS(C)(=O)=O)ccc1Nc1c2ccccc2nc2ccccc12 [amsacrine]
clinical anti-tumor activity (in words) [13]: exhibit clinical anti-tumor activity

O=C1c2cccc3cc([N+](=O)[O-])cc(c23)C(=O)N1CCOCCOCCN1C(=O)c2cccc3cc([N+](=O)[O-])cc(c23)C1=O [Compound 19, 5-[2-(3-Nitronaphthalene-1,8-dicarboximido)ethoxy]-1-(3-nitronaphthalene-1,8-dicarboximido)-3-oxapentane]
DNA binding (in words) (DNA): did not bind to DNA
anticancer activity against B16 melanoma in vitro (in words) [7]: potent anticancer activity against this melanoma type
pIC50 [7]: 7.29
pIC50 [8]: 4.08
Ratio (AT/GC) [9]: 1.7
pIC50 [9]: 4.31
pIC50 (Lambda DNA): 4.25

CS(=O)(=O)O.O=C1c2cccc3cc([N+](=O)[O-])cc(c23)C(=O)N1CCCCNCCCN1C(=O)c2cccc3cc([N+](=O)[O-])cc(c23)C1=O [XB596]
anti-tumor activity, MX-1 (in words) [2]: demonstrated in vivo anti-tumor activity
activity against B16 melanoma (in words) (B16 melanoma): ineffective against B16 melanoma
anti-tumor activity, DLD-2 (in words) [4]: demonstrated in vivo anti-tumor activity
water solubility [6]: 0.045 g/L

COc1cccc2c1C(=O)c1c(O)c3c(c(O)c1C2=O)C[C@@](O)(C(C)=O)C[C@@H]3O[C@H]1C[C@H](N)[C@H](O)[C@H](C)O1 [daunorubicin]
cardiomyopathy (in words) [1]: unusual cardiomyopathy

CN(C)CCN1C(=O)c2cccc3cc(N)cc(c23)C1=O [amonafide]
inhibition of topoisomerase II (in words) (topoisomerase II): inhibit topoisomerase II

O=C1c2c(O)cccc2-c2nn(CCNCCO)c3ccc(NCCNCCO)c1c23 [DuP 941]
clinical anti-tumor activity (in words) [13]: exhibit clinical anti-tumor activity
